Values after ≈ are worked out from the molar mass of the structure shown. Values joined by “and” are separate entries in the source; they are usually repeats but may differ in a detail not shown here. Equal entries are not always repeated.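 Where inhibition never reached the appropriate level, the endpoint shown equals the highest concentration tested. Otherwise, values were interpolated linearly from a five-concentration, 48-hour dose response in 96-well plates. GI50 marks 50% less growth. At the TGI there is no net growth.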 Active and inactive are the calls of the source. Cut-off read from the data, not from the text of the source: active = GI50 below about 0.43 µM; inactive = the rest.

The test system of the first experiment is BT-549 breast. Description: NCI anticancer screen, dose series, 48 h.
Regarding `CSc1ccc(/C=C2\CNC/C(=C\c3ccc(SC)cc3)C2=O)cc1`, the TGI is over 371 µM.

Another experiment concerns LXFL 529 NSCLC. As to the kind of experiment: NCI anticancer screen, dose series, 48 h.
Consider `Nc1nc2c(ncn2Cc2ccccc2CCO)c(=O)[nH]1`, for which the TGI is over 100 µM.
In turn, `O=[N+]([O-])c1ccc(N=Nc2c(O)[nH]c3ccc([N+](=O)[O-])cc23)cc1` returned a TGI of 26.4 µM.
With `CC12CC3(C)CC(C)(C1)CC(N=[N+]=[N-])(C2)C3`, the TGI was over 100 µM.
The compound `Fc1cccc(Cl)c1C1SCc2nc3ccccc3n21` (stereo unspecified) yielded a TGI of over 100 µM.
Regarding `COc1cc2nncc(Sc3cnnc4ccccc34)c2cc1OC`, the TGI was over 100 µM.
The same measure, in the same setting: the figure for `CC(=O)N(CCN)CCN` is over 10 µM; for `Cc1cc(O)c2c(c1)C(O)(c1ccc3c(c1O)C(=O)c1c(O)cc(C)cc1C3(O)C1OC(CO)C(O)C(O)C1O)c1cccc(O)c1C2=O` (stereo unspecified) it is 24.5 µM; for `CCc1ccccc1NC(=O)C(=O)C(C(=O)c1ccc(OC)cc1)c1ccc(OC)cc1` (stereo unspecified) it is over 100 µM.
Consider `C=C(C)C1CC2C(C)=C(OC(C)=O)C1n1c(=O)c3cc4ccccc4cc3c(=O)n12` (stereo unspecified), for which the TGI is over 100 µM.
Still for that read-out and setting: for `O=C(CCc1nc(=S)[nH][nH]1)NC12CC3CC(CC(C3)C1)C2` the value was over 100 µM; for `CSc1ccc(/C=C2\CNC/C(=C\c3ccc(SC)cc3)C2=O)cc1`, 68.6 µM.
With `CSc1nc2c(c(O)c(C)c(=O)n2C2OC(COC(C)=O)C(OC(C)=O)C(OC(C)=O)C2OC(C)=O)c(=O)n1C` (stereo unspecified), the TGI is over 100 µM.
The same measure, in the same setting: the figure for `Cc1c(C)c2cc3c(=O)ccoc3c(C)c2oc1=O` is over 100 µM.

The test system of the next experiment is M19-MEL melanoma. As to the kind of experiment: NCI anticancer screen, dose series, 48 h.
For the compound `Nc1nc2c(ncn2Cc2ccccc2CCO)c(=O)[nH]1`, the TGI was over 100 µM.
`O=[N+]([O-])c1ccc(N=Nc2c(O)[nH]c3ccc([N+](=O)[O-])cc23)cc1`: the TGI was found to be 36.9 µM.
With `CC12CC3(C)CC(C)(C1)CC(N=[N+]=[N-])(C2)C3`, the TGI was over 100 µM.
`Fc1cccc(Cl)c1C1SCc2nc3ccccc3n21` (stereo unspecified) had a TGI of 89 µM.
With `COc1cc2nncc(Sc3cnnc4ccccc34)c2cc1OC`, the TGI is over 100 µM.
The compound `CC(=O)N(CCN)CCN` returned a TGI of over 10 µM.
On the same count and under the same terms, the figure for `Cc1cc(O)c2c(c1)C(O)(c1ccc3c(c1O)C(=O)c1c(O)cc(C)cc1C3(O)C1OC(CO)C(O)C(O)C1O)c1cccc(O)c1C2=O` (stereo unspecified) is 24.8 µM.
For the compound `C=C(C)C1CC2C(C)=C(OC(C)=O)C1n1c(=O)c3cc4ccccc4cc3c(=O)n12` (stereo unspecified), the TGI was over 100 µM.
The compound `O=C(CCc1nc(=S)[nH][nH]1)NC12CC3CC(CC(C3)C1)C2` yielded a TGI of over 100 µM.
For `Cc1c(C)c2cc3c(=O)ccoc3c(C)c2oc1=O`, the TGI was over 100 µM.

A further experiment relates to HOP-18 NSCLC. Description: NCI anticancer screen, dose series, 48 h.
Compound `CC12CC3(C)CC(C)(C1)CC(N=[N+]=[N-])(C2)C3` registered a TGI of over 100 µM.
Still for that read-out and setting: for `Fc1cccc(Cl)c1C1SCc2nc3ccccc3n21` (stereo unspecified) the value was over 100 µM.
In the case of `COc1cc2nncc(Sc3cnnc4ccccc34)c2cc1OC`, the TGI came out at 37.8 µM.
On the same count and under the same terms, the figure for `Cc1cc(O)c2c(c1)C(O)(c1ccc3c(c1O)C(=O)c1c(O)cc(C)cc1C3(O)C1OC(CO)C(O)C(O)C1O)c1cccc(O)c1C2=O` (stereo unspecified) is 8.38 µM; for `CCc1ccccc1NC(=O)C(=O)C(C(=O)c1ccc(OC)cc1)c1ccc(OC)cc1` (stereo unspecified) it is over 100 µM; for `C=C(C)C1CC2C(C)=C(OC(C)=O)C1n1c(=O)c3cc4ccccc4cc3c(=O)n12` (stereo unspecified) it is over 100 µM.
Turning to `O=C(CCc1nc(=S)[nH][nH]1)NC12CC3CC(CC(C3)C1)C2`, the TGI is over 100 µM.
Take `CSc1ccc(/C=C2\CNC/C(=C\c3ccc(SC)cc3)C2=O)cc1`: the GI50 is 111 µM, the TGI is over 371 µM and the result was inactive.
`CSc1nc2c(c(O)c(C)c(=O)n2C2OC(COC(C)=O)C(OC(C)=O)C(OC(C)=O)C2OC(C)=O)c(=O)n1C` (stereo unspecified) displayed a TGI of over 100 µM.
The compound `Cc1c(C)c2cc3c(=O)ccoc3c(C)c2oc1=O` registered a TGI of over 100 µM.

The next experiment concerns DMS 114 small cell lung. As to the kind of experiment: NCI anticancer screen, dose series, 48 h.
Consider `Nc1nc2c(ncn2Cc2ccccc2CCO)c(=O)[nH]1`, for which the TGI is over 100 µM.
Same read-out and setting: for `O=[N+]([O-])c1ccc(N=Nc2c(O)[nH]c3ccc([N+](=O)[O-])cc23)cc1` the value was 86.3 µM.
The compound `CC12CC3(C)CC(C)(C1)CC(N=[N+]=[N-])(C2)C3` yielded a TGI of over 100 µM.
`Fc1cccc(Cl)c1C1SCc2nc3ccccc3n21` (stereo unspecified): the TGI was found to be 65.6 µM.
`COc1cc2nncc(Sc3cnnc4ccccc34)c2cc1OC` came in with a TGI of over 100 µM.
`CC(=O)N(CCN)CCN` had a TGI of over 10 µM.
Still for that read-out and setting: the figure for `Cc1cc(O)c2c(c1)C(O)(c1ccc3c(c1O)C(=O)c1c(O)cc(C)cc1C3(O)C1OC(CO)C(O)C(O)C1O)c1cccc(O)c1C2=O` (stereo unspecified) is 22.7 µM.
As to `CCc1ccccc1NC(=O)C(=O)C(C(=O)c1ccc(OC)cc1)c1ccc(OC)cc1` (stereo unspecified), the TGI is over 100 µM.
On the same count and under the same terms, the figure for `C/C(=N/N(C=O)C[n+]1ccccc1)C(CN(CC(C)C)CC(C)C)C(=O)Nc1ccc(C)cc1C` (stereo unspecified) is over 100 µM; for `C=C(C)C1CC2C(C)=C(OC(C)=O)C1n1c(=O)c3cc4ccccc4cc3c(=O)n12` (stereo unspecified) it is over 100 µM.
With `O=C(CCc1nc(=S)[nH][nH]1)NC12CC3CC(CC(C3)C1)C2`, the TGI is over 100 µM.
`CSc1ccc(/C=C2\CNC/C(=C\c3ccc(SC)cc3)C2=O)cc1`: the GI50 is 54.1 µg/mL (≈ 147 µM); the TGI is 132 µM and 150 µg/mL.
For the compound `CSc1nc2c(c(O)c(C)c(=O)n2C2OC(COC(C)=O)C(OC(C)=O)C(OC(C)=O)C2OC(C)=O)c(=O)n1C` (stereo unspecified), the TGI was over 100 µM.
Take `Cc1c(C)c2cc3c(=O)ccoc3c(C)c2oc1=O`: the TGI is over 100 µM.

The values above are taken from PubChem BioAssay (NCI).
